This is an account of results in PubChem BioAssay (NCI).

Common to all, as to experiment: NCI tumour cell line growth inhibition, 48 h
Experiment [1] deals with DU-145 prostate.
Experiment [2] relates to OVCAR-4 ovarian.
Experiment [3] has as its system SN12C renal.
For experiment [4], the system named is HOP-62 NSCLC.
For experiment [5], the system named is UACC-62 melanoma.
Experiment [6] relates to SF-268 CNS.
Experiment [7] concerns SNB-19 CNS.
Experiment [8] concerns MDA-MB-231 breast.
The subject of experiment [9] is NCI/ADR-RES ovarian.
Experiment [10] has as its system MCF7 breast.

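The compound was tested at five concentrations on cells cultured in 96-well plates, with a 48-hour exposure period. The concentration for full growth arrest is given as TGI.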

Consider `CC1(CCCO)CCCCCC(C)(CCCO)C1=O` (stereo not given), for which the TGI in experiment [1], in experiment [2], in experiment [3], in [4], in experiment [5] and in experiment [6] was above 100 µM in each case. Moreover, the TGI in experiment [7], in [8], in experiment [9] and in [10] was above 100 µM throughout.

For `CCc1nc(N)nc(N)c1-c1ccc(Cl)c(Cl)c1`, the TGI in [1], in [2], in experiment [3], in experiment [4], in experiment [5] and in [6] was above 100 µM throughout. Also, the TGI in experiment [7], in experiment [8], in experiment [9] and in experiment [10] was above 100 µM throughout.

For the compound `C[C@]12CC[C@H](O)CC1=CC[C@@H]1[C@@H]2CC[C@]2(C)C(=O)[C@@H](N3CCOCC3)C[C@@H]12`, the TGI in experiment [1], in experiment [2], in experiment [3], in experiment [4], in experiment [5] and in experiment [6] was above 100 µM throughout. Further, the TGI in experiment [7], in experiment [8], in experiment [9] and in experiment [10] was above 100 µM each time.

Turning to `CN1C(=O)N/C(=C\c2ccc(S(=O)(=O)NN)cc2)C1=O`, the TGI in experiment [1], in experiment [2], in [3], in experiment [4], in experiment [5] and in [6] was above 100 µM throughout. For the same compound, the TGI in [7], in experiment [8], in experiment [9] and in experiment [10] was above 100 µM each time.

As for `C=CCNC1=C2C[C@@H](C)C[C@@H](OC)[C@H](OC(=O)CCCCN)[C@H](C)/C=C(\C)[C@@H](OC(N)=O)[C@H](OC)/C=C\C=C(/C)C(=O)NC(=CC1=O)C2=O`, the TGI in [1] was 18.5 µM; in experiment [2] it was 30.8 µM; in experiment [3], 27.1 µM; in [4] it was 18.5 µM; in [5], 27.7 µM; in [6] it was 32.8 µM. The TGI in experiment [7] was 23.8 µM; in [8] it was 27.7 µM; in [9], above 100 µM; in experiment [10], 12.4 µM.

On to `CC(=O)OCCn1cnc2nc(Nc3ccccc3)nc(Cl)c21`, for which the TGI in experiment [1], in experiment [2], in [3], in [4], in experiment [5] and in experiment [6] was above 100 µM in each case. The TGI in experiment [7], in experiment [8], in experiment [9] and in experiment [10] was above 100 µM throughout.

On to `COc1ccc(C(=O)Sc2c(-c3ccccc3)c(=O)n(-c3ccccc3)c(=S)n2-c2ccccc2)cc1`, for which the TGI in experiment [1], in experiment [2], in experiment [3], in experiment [4], in [5] and in [6] was above 100 µM throughout. Further, the TGI in [7], in experiment [8], in [9] and in experiment [10] was above 100 µM each time.

As to `O=c1[nH]c(-c2ccc3ccccc3c2)nc2ccccc12`, the TGI was above 100 µM in [1]; 9.73 µM in [2]; above 100 µM in [3]; 50.2 µM in [4]; above 100 µM in [5]; above 100 µM in [6]. Besides, the TGI in experiment [7] was 51.4 µM; in experiment [8] it was above 100 µM; in experiment [9] it was above 100 µM; in [10], above 100 µM.

As for `O=C(CC(=O)Nc1cccc(C(=O)O)c1)Nc1cccc(C(=O)O)c1`, the TGI in experiment [1], in experiment [2], in experiment [3], in [4], in experiment [5] and in [6] was above 100 µM each time. Further, the TGI in experiment [7], in [8], in experiment [9] and in experiment [10] was above 100 µM in each case.

As for `COc1ccc2nc3ccc(OC)cc3c(S(=O)CCCl)c2c1` (stereo not given), the TGI was found to be 4.66 µM in [1]; 16.4 µM in [2]; 3.72 µM in experiment [3]; 36.8 µM in [4]; 32.1 µM in experiment [5]; 28.2 µM in [6]. Further, the TGI in [7] is above 59.3 µM; in [8] it was 11.8 µM; in experiment [9], 36.8 µM; in experiment [10], above 21.4 µM.

For `O=[N+]([O-])c1ccccc1S(=O)(=O)c1cc(Cl)cc2c1NCCC2`, the TGI in experiment [1], in experiment [2], in experiment [3], in experiment [4], in experiment [5] and in experiment [6] was above 100 µM in each case. Moreover, the TGI in experiment [7], in experiment [8], in experiment [9] and in experiment [10] was above 100 µM each time.

Take `COc1nc(C(=O)NNC(=O)c2nc(OC)c3ccccc3c2-c2ccccc2)c(-c2ccccc2)c2ccccc12`: the TGI in experiment [1], in experiment [2], in experiment [3], in experiment [4], in [5] and in experiment [6] was above 100 µM in each case. Besides, the TGI in [7], in [8], in [9] and in [10] was above 100 µM throughout.

For the compound `CC(C)(C)OC(=O)NCC(O)CNC(=O)OC(C)(C)C`, the TGI in experiment [1], in experiment [2], in experiment [3], in experiment [4], in experiment [5] and in experiment [6] was above 100 µM in each case. For the same compound, the TGI in experiment [7], in experiment [8], in experiment [9] and in experiment [10] was above 100 µM throughout.

Consider `CCOC(=O)C1=C(C)N(C)C23OC4(C(=O)OC)CC2c2ccccc2C1N3C4=O` (stereo not given), for which the TGI in experiment [1], in [2], in experiment [3], in experiment [4], in experiment [5] and in [6] was above 100 µM each time. Moreover, the TGI in [7], in [8], in experiment [9] and in experiment [10] was above 100 µM each time.
